{
  "source": "patent US9023789B2",
  "about": "“Amylin analogs and pharmaceutical compositions thereof” (Novo Nordisk A/S, priority 2012, dated 2015)",
  "key": {"[1]": {"target": "T1, human calcitonin (a) receptor in BHK570 cells (Homo sapiens, UniProt P30988)", "T1 construct": "expressed in transfected cells", "T1 sequence (P30988 25-474)": "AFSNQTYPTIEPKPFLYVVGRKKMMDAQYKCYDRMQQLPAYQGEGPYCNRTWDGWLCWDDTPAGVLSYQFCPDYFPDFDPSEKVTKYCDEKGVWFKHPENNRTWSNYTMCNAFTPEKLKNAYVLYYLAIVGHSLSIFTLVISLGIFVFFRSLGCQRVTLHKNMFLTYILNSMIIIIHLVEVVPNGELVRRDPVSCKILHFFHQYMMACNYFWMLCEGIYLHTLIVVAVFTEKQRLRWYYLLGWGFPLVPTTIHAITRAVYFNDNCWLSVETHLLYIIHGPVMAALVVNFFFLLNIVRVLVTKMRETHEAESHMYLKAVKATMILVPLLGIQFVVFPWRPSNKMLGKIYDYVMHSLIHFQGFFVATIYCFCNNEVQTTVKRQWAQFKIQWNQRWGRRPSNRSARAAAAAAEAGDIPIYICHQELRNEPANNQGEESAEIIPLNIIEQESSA", "assay": "ASSAY (II)a functional assay, human calcitonin receptor (CRE luciferase)", "format": "cell-based", "details": "read-out: hCTR funct. EC50", "summary_of_the_method": "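Functional agonism was measured by CRE-luciferase reporter luminescence in BHK cells bearing calcitonin receptor, or calcitonin receptor plus RAMP-3 as the amylin 3(a) receptor. Stimulation lasted 3 hours at 37° C.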"}, "[2]": {"assay": "ASSAY (III) ThT fibrillation assay for physical stability", "format": "physicochemical", "summary_of_the_method": "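Physical stability scored by ThT fluorescence (444 nm excitation, 485 nm emission) tracked every 20 min during 37 °C incubation with 960 rpm shaking, ThT at 1 μM final. Values are replicate means with SD at chosen times; HPLC against pramlintide standard gives initial and post-assay soluble concentrations.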"}, "[3]": {"target": "T2, human calcitonin receptor (Homo sapiens, UniProt P30988)", "T2 construct": "expressed in transfected cells", "T2 sequence (P30988 25-474)": "T1 sequence (P30988 25-474)", "assay": "ASSAY (VII) binding to the human calcitonin receptor (SPA, 125I-Calcitonin);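 further: cell membranes (35 ng/µL) combined with SPA beads in 40 µL of pH 7.4 Hepes buffer, 384-well format, signal counted on a TopCounter instrument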", "details": "read-out: hCTR bind IC50"}},
  "note": "Numbered stars: 1 amine (or outer) side, 2 acyl side, 3 side chain; on linkers, the order of the positions; unused ones are H or OH. Bridge positions count the residues as written; N and C are the ends. Side chains are listed from the residue outwards. Peptide text beside a SMILES is read from it. * marks the point of attachment. C20 diacid = O=C(O)CCCCCCCCCCCCCCCCCCC(=O)*; γGlu = O=C(O)[C@H](CCC(=O)[*:2])N[*:1]; AEEA = NCCOCCOCC(=O)O",
  "data": [
    {"smiles": "CC[C@H](C)[C@H](NC(=O)[C@H](C)NC(=O)CNC(=O)[C@H](Cc1ccccc1)NC(=O)[C@H](CC(N)=O)NC(=O)[C@@H]1CCCN1C(=O)[C@H](CO)NC(=O)[C@H](CO)NC(=O)[C@H](Cc1c[nH]cn1)NC(=O)[C@H](CCCNC(=N)N)NC(=O)[C@H](CC(C)C)NC(=O)[C@H](Cc1ccccc1)NC(=O)[C@H](Cc1c[nH]cn1)NC(=O)[C@H](C)NC(=O)[C@H](CC(C)C)NC(=O)[C@H](CCCNC(=N)N)NC(=O)[C@H](CCC(N)=O)NC(=O)[C@@H](NC(=O)[C@H](C)NC(=O)[C@@H]1CSSC[C@H](NC(=O)[C@@H](N)CCCCNC(=O)COCCOCCNC(=O)CC[C@H](NC(=O)CCCCCCCCCCCCCCCCCCC(=O)O)C(=O)O)C(=O)N[C@@H](CC(N)=O)C(=O)N[C@@H]([C@@H](C)O)C(=O)N[C@@H](C)C(=O)N[C@@H]([C@@H](C)O)C(=O)N1)[C@@H](C)O)C(=O)N1CCC[C@H]1C(=O)N[C@@H](CO)C(=O)N[C@@H](CO)C(=O)N[C@H](C(=O)N[C@@H](CC(N)=O)C(=O)N[C@H](C(=O)NCC(=O)N[C@@H](CO)C(=O)N[C@@H](CC(N)=O)C(=O)N[C@H](C(=O)N[C@@H](Cc1ccc(O)cc1)C(N)=O)[C@@H](C)O)C(C)C)[C@@H](C)O", "note": "[Example 69] (H-K([AEEA-γGlu-C20 diacid])CNTATCATQRLAHFLRHSSPNFGAIPSSTNVGSNTY-NH2; disulfide 2-7; N-terminus assumed)", "values": [
      {"measurement": "EC50", "setting": "[1]", "value": 1.25, "unit": "nM"},
      {"measurement": "ThT pH 4.0 lag time (h)", "setting": "[2]", "value": 22, "unit": "h"},
      {"measurement": "IC50", "setting": "[3]", "value": 8.68, "unit": "nM"}
    ]},
    {"smiles": "CC[C@H](C)[C@H](NC(=O)[C@H](C)NC(=O)CNC(=O)[C@H](Cc1ccccc1)NC(=O)[C@H](CC(N)=O)NC(=O)[C@@H]1CCCN1C(=O)[C@H](CO)NC(=O)[C@H](CO)NC(=O)[C@H](Cc1c[nH]cn1)NC(=O)[C@H](CCCNC(=N)N)NC(=O)[C@H](CC(C)C)NC(=O)[C@H](Cc1ccccc1)NC(=O)[C@H](CC(N)=O)NC(=O)[C@H](C)NC(=O)[C@H](CC(C)C)NC(=O)[C@H](CCCNC(=N)N)NC(=O)[C@H](CCC(N)=O)NC(=O)[C@@H](NC(=O)[C@H](C)NC(=O)[C@@H]1CSSC[C@H](NC(=O)[C@@H](N)CCCCNC(=O)COCCOCCNC(=O)CC[C@H](NC(=O)CCCCCCCCCCCCCCCCCCC(=O)O)C(=O)O)C(=O)N[C@@H](CC(N)=O)C(=O)N[C@@H]([C@@H](C)O)C(=O)N[C@@H](C)C(=O)N[C@@H]([C@@H](C)O)C(=O)N1)[C@@H](C)O)C(=O)N1CCC[C@H]1C(=O)N[C@@H](CO)C(=O)N[C@@H](CO)C(=O)N[C@H](C(=O)N[C@@H](CC(N)=O)C(=O)N[C@H](C(=O)NCC(=O)N1CCC[C@H]1C(=O)N[C@@H](CC(N)=O)C(=O)N[C@H](C(=O)N[C@@H](Cc1ccc(O)cc1)C(N)=O)[C@@H](C)O)C(C)C)[C@@H](C)O", "note": "[Example 50]", "values": [
      {"measurement": "EC50", "setting": "[1]", "value": 0.662, "unit": "nM"},
      {"measurement": "ThT pH 4.0 lag time (h)", "setting": "[2]", "value": 2, "unit": "h"},
      {"measurement": "IC50", "setting": "[3]", "value": 1.38, "unit": "nM"}
    ]},
    {"smiles": "CC[C@H](C)[C@H](NC(=O)[C@H](C)NC(=O)CNC(=O)[C@H](Cc1ccccc1)NC(=O)[C@H](CC(N)=O)NC(=O)[C@@H]1CCCN1C(=O)[C@H](CO)NC(=O)[C@H](CO)NC(=O)[C@H](Cc1c[nH]cn1)NC(=O)[C@H](CCCNC(=N)N)NC(=O)[C@H](CC(C)C)NC(=O)[C@H](Cc1ccccc1)NC(=O)[C@H](CC(N)=O)NC(=O)[C@H](C)NC(=O)[C@H](CC(C)C)NC(=O)[C@H](CCCNC(=N)N)NC(=O)[C@H](CCC(N)=O)NC(=O)[C@@H](NC(=O)[C@H](C)NC(=O)[C@@H]1CSSC[C@H](NC(=O)[C@@H](N)CCCCNC(=O)CC[C@H](NC(=O)CCCCCCCCCCCCCCCCCCC(=O)O)C(=O)O)C(=O)N[C@@H](CC(N)=O)C(=O)N[C@@H]([C@@H](C)O)C(=O)N[C@@H](C)C(=O)N[C@@H]([C@@H](C)O)C(=O)N1)[C@@H](C)O)C(=O)N1CCC[C@H]1C(=O)N[C@@H](CO)C(=O)N[C@@H](CO)C(=O)N[C@H](C(=O)N[C@@H](CC(N)=O)C(=O)N[C@H](C(=O)NCC(=O)N[C@@H](CO)C(=O)N[C@@H](CC(N)=O)C(=O)N[C@H](C(=O)N[C@@H](Cc1ccc(O)cc1)C(N)=O)[C@@H](C)O)C(C)C)[C@@H](C)O", "note": "[Example 48]", "values": [
      {"measurement": "EC50", "setting": "[1]", "value": 1.97, "unit": "nM"},
      {"measurement": "ThT pH 4.0 lag time (h)", "setting": "[2]", "value": 25, "unit": "h"},
      {"measurement": "IC50", "setting": "[3]", "value": 30.9, "unit": "nM"}
    ]},
    {"smiles": "CC[C@H](C)[C@H](NC(=O)[C@H](C)NC(=O)CNC(=O)[C@H](Cc1ccccc1)NC(=O)[C@H](CC(N)=O)NC(=O)[C@@H]1CCCN1C(=O)[C@H](CO)NC(=O)[C@H](CO)NC(=O)[C@H](Cc1c[nH]cn1)NC(=O)[C@H](CCCNC(=N)N)NC(=O)[C@H](CC(C)C)NC(=O)[C@H](Cc1ccccc1)NC(=O)[C@H](Cc1c[nH]cn1)NC(=O)[C@H](C)NC(=O)[C@H](CC(C)C)NC(=O)[C@H](CCCNC(=N)N)NC(=O)[C@H](CCC(N)=O)NC(=O)[C@@H](NC(=O)[C@H](C)NC(=O)[C@@H]1CSSC[C@H](NC(=O)[C@@H](N)CCCCNC(=O)CC[C@H](NC(=O)CCCCCCCCCCCCCCCCCCC(=O)O)C(=O)O)C(=O)N[C@@H](CC(N)=O)C(=O)N[C@@H]([C@@H](C)O)C(=O)N[C@@H](C)C(=O)N[C@@H]([C@@H](C)O)C(=O)N1)[C@@H](C)O)C(=O)N1CCC[C@H]1C(=O)N[C@@H](CO)C(=O)N[C@@H](CO)C(=O)N[C@H](C(=O)N[C@@H](CC(N)=O)C(=O)N[C@H](C(=O)NCC(=O)N[C@@H](CO)C(=O)N[C@@H](CC(N)=O)C(=O)N[C@H](C(=O)N[C@@H](Cc1ccc(O)cc1)C(N)=O)[C@@H](C)O)C(C)C)[C@@H](C)O", "note": "[Example 70] (H-K([γGlu-C20 diacid])CNTATCATQRLAHFLRHSSPNFGAIPSSTNVGSNTY-NH2; disulfide 2-7; N-terminus assumed)", "values": [
      {"measurement": "EC50", "setting": "[1]", "value": 0.715, "unit": "nM"},
      {"measurement": "ThT pH 4.0 lag time (h)", "setting": "[2]", "value": 7, "unit": "h"},
      {"measurement": "IC50", "setting": "[3]", "value": 10.3, "unit": "nM"}
    ]},
    {"smiles": "CC[C@H](C)[C@H](NC(=O)[C@H](C)NC(=O)CNC(=O)[C@H](Cc1ccccc1)NC(=O)[C@H](CC(N)=O)NC(=O)[C@@H]1CCCN1C(=O)[C@H](CO)NC(=O)[C@H](CO)NC(=O)[C@H](Cc1c[nH]cn1)NC(=O)[C@H](CCCNC(=N)N)NC(=O)[C@H](CC(C)C)NC(=O)[C@H](Cc1ccccc1)NC(=O)[C@H](CC(N)=O)NC(=O)[C@H](C)NC(=O)[C@H](CC(C)C)NC(=O)[C@H](CCCNC(=N)N)NC(=O)[C@H](CCC(N)=O)NC(=O)[C@@H](NC(=O)[C@H](C)NC(=O)[C@@H]1CSSC[C@H](NC(=O)[C@@H](N)CCCCNC(=O)COCCOCCNC(=O)CC[C@H](NC(=O)CCCCCCCCCCCCCCCCCCC(=O)O)C(=O)O)C(=O)N[C@@H](CC(N)=O)C(=O)N[C@@H]([C@@H](C)O)C(=O)N[C@@H](C)C(=O)N[C@@H]([C@@H](C)O)C(=O)N1)[C@@H](C)O)C(=O)N1CCC[C@H]1C(=O)N1CCC[C@H]1C(=O)N[C@@H](CO)C(=O)N[C@H](C(=O)N[C@@H](CC(N)=O)C(=O)N[C@H](C(=O)NCC(=O)N1CCC[C@H]1C(=O)N[C@@H](CC(N)=O)C(=O)N[C@H](C(=O)N[C@@H](Cc1ccc(O)cc1)C(N)=O)[C@@H](C)O)C(C)C)[C@@H](C)O", "note": "[Example 55] (H-K([AEEA-γGlu-C20 diacid])CNTATCATQRLANFLRHSSPNFGAIPPSTNVGPNTY-NH2; disulfide 2-7; N-terminus assumed)", "values": [
      {"measurement": "EC50", "setting": "[1]", "value": 0.731, "unit": "nM"},
      {"measurement": "ThT pH 4.0 lag time (h)", "setting": "[2]", "value": 24, "unit": "h"},
      {"measurement": "IC50", "setting": "[3]", "value": 2.18, "unit": "nM"}
    ]}
  ]
}
